Test results published in US11173160B2 (UNIVERSITY OF PITTSBURGH—OF THE COMMONWEALTH SYSTEM OF …, priority 2019, dated 2021).

Tests used:
Nek2 = Nek2 (Homo sapiens, UniProt P51955); conditions: cited from earlier work
TYK2 = TYK2 (Homo sapiens, UniProt P29597); conditions: Source Invitrogen; 10-point titration in duplicates, done once; cited from earlier work
DIPG13p = experiment: IC50 of two forms of TG02 in DIPG cell lines in vitro; format: cell-based, human; conditions: DIPG13p cell line; listed as TG02 obtained from Adastra Pharmaceuticals
Protocol: (§1) Direct cell counts were performed using the Countess II FL Automated Cell Counter (ThermoFisher Scientific). Alamar blue viability (ThermoFisher Scientific) and the 5-bromo-2′-deoxyuridine (BrdU) incorporated cell proliferation assay (Cell Signaling Technology Cat #6813) were performed using the manufacturer's standard protocol. EC50 curve analysis was performed using raw fluorescent Alamar blue values that were inputted into PRISM 7.0. Drug concentrations were log 10 transformed and values normalized to percent viability with respect to vehicle treated cells. EC50 values were interpolated from a log inhibitor vs. normalized response with variable slope using a least square fit model.

SF8628 = experiment: as above; format: cell-based, human; conditions: SF8628 cell line; listed as TG02 obtained from Adastra Pharmaceuticals
Protocol: as §1

DIPG4 = experiment: as above; format: cell-based, human; conditions: DIPG4 cell line; listed as TG02 obtained from Adastra Pharmaceuticals
Protocol: as §1

DIPG007 = experiment: as above; format: cell-based, human; conditions: DIPG007 cell line; listed as TG02 obtained from Adastra Pharmaceuticals
Protocol: as §1

MEK1 = MEK1 (Homo sapiens, UniProt Q02750); conditions: cited from earlier work
MEK1, sequence (Q02750 whole entry): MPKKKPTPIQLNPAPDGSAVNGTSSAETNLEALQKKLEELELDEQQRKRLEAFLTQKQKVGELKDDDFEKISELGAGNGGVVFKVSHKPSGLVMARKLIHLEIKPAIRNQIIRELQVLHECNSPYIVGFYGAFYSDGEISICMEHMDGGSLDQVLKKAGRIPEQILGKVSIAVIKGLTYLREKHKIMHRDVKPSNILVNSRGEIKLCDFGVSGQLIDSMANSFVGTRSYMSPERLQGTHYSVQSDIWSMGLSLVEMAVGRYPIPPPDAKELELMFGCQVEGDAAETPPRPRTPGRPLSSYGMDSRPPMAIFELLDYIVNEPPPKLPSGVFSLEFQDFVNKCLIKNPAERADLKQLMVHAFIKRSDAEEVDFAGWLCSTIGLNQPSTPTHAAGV

Fms = Fms (Homo sapiens, UniProt P07333); conditions: Source Millipore; 10-point titration in duplicates, done once; cited from earlier work
Aurora B = Aurora B (Homo sapiens, UniProt Q96GD4); conditions: cited from earlier work
Aurora B, sequence (Q96GD4 whole entry): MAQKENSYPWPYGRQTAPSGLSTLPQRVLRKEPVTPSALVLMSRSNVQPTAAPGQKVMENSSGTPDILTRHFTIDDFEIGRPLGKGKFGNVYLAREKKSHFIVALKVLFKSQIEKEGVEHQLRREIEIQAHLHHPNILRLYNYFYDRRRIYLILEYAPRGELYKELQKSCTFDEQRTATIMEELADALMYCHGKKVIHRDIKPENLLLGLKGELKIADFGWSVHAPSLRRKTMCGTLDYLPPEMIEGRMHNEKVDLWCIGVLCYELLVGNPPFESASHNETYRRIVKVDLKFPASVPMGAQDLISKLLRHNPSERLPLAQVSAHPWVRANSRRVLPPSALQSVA

[1] = system: DIPG-IV cells overexpressing ERK5 and constitutively active ERK5; experiment: EC50 of TG02 in DIPG-IV cells expressing ERK5-HA or ERK5-HA T733E; format: cell-based, human
Protocol: as §1

PKCε = PKCε (Homo sapiens, UniProt Q02156); conditions: cited from earlier work
JAK2 = JAK2 (Homo sapiens, UniProt O60674); conditions: Source Invitrogen; 10-point titration in duplicates, done once; cited from earlier work
JAK2, sequence (O60674 whole entry): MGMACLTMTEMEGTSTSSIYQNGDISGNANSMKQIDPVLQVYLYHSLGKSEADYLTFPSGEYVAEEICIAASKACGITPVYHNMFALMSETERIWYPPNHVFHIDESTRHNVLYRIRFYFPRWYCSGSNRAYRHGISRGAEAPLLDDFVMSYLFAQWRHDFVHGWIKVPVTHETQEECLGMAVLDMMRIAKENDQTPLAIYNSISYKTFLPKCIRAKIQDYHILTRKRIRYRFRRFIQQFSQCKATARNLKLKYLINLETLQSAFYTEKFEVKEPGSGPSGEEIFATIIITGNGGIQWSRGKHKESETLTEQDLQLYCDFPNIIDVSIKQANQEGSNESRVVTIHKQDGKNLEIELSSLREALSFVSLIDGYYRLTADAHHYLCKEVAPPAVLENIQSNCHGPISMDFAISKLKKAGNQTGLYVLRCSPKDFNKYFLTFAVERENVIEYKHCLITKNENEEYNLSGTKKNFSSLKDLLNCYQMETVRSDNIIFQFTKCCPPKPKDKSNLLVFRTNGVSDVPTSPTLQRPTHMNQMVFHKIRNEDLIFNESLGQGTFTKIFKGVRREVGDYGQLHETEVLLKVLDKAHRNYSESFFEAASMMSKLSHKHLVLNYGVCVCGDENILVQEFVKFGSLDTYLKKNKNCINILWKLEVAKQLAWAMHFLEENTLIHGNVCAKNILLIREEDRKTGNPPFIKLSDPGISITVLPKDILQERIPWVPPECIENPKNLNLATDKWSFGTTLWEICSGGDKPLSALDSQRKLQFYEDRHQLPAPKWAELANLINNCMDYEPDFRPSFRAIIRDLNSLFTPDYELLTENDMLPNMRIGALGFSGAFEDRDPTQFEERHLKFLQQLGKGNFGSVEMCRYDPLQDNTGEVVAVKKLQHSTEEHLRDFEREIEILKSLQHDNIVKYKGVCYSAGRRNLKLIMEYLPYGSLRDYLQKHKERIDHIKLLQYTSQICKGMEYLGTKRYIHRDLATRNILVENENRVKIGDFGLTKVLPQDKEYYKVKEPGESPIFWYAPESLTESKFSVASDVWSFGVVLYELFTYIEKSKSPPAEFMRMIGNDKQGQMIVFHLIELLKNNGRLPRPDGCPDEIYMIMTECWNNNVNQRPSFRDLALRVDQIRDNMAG

Chk1 = Chk1 (Homo sapiens, UniProt O14757); conditions: cited from earlier work
[2] = system: DIPG-13p and DIPG-IV cells; experiment: cell viability with TG02 and/or RT; format: cell-based, human
ALK = ALK (Homo sapiens, UniProt Q9UM73); conditions: cited from earlier work
ALK, sequence (Q9UM73 19-1620): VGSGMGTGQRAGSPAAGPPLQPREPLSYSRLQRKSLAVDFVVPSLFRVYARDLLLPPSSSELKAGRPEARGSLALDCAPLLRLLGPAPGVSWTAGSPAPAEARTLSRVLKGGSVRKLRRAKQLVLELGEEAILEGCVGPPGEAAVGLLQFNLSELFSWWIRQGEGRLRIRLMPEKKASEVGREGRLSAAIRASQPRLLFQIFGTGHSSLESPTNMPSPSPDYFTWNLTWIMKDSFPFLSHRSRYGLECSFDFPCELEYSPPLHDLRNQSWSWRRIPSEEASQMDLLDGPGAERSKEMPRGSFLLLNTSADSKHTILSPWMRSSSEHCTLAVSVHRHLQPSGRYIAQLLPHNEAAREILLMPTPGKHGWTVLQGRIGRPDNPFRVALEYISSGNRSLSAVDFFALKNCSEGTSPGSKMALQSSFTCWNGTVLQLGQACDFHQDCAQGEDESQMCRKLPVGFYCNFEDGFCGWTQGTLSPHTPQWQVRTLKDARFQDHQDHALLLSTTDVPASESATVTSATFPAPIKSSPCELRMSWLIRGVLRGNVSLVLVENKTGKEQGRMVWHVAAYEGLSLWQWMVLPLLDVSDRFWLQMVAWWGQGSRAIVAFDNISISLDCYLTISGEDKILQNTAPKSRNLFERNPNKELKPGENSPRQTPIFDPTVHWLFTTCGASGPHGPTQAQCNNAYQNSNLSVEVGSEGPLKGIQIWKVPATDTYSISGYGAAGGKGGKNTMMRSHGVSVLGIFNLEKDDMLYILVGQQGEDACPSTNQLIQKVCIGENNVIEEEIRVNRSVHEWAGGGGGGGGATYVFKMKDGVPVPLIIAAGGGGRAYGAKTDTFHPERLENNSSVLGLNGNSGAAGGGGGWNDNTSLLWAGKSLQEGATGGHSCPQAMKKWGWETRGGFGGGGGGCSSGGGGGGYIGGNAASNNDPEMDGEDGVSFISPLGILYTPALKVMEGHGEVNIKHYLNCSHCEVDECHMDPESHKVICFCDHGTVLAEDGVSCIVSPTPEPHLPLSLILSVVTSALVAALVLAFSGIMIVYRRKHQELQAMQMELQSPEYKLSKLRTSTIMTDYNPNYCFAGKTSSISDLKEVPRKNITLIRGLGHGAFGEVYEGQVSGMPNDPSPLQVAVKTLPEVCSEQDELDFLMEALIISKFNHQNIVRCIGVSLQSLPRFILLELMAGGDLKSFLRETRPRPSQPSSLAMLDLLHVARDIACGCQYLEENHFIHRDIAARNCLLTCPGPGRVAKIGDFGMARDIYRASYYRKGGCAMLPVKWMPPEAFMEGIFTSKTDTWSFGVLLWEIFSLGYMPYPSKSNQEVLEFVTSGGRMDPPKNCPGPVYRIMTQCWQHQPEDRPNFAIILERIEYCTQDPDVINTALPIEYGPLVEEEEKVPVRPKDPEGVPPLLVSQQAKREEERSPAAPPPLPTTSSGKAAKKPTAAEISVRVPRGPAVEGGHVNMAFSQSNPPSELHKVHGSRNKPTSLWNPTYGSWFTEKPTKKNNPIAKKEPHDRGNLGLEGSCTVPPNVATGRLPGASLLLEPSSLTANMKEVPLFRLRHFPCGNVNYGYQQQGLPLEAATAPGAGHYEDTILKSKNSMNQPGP

EGFR = EGFR (Homo sapiens, UniProt P00533); conditions: cited from earlier work
IKK-β = IKK-β (Homo sapiens, UniProt O14920); conditions: cited from earlier work
ZAP-70 = ZAP-70 (Homo sapiens, UniProt P43403); conditions: cited from earlier work
CDK6 = CDK6 (Homo sapiens, UniProt Q00534); conditions: cited from earlier work
CDK6, sequence (Q00534 whole entry): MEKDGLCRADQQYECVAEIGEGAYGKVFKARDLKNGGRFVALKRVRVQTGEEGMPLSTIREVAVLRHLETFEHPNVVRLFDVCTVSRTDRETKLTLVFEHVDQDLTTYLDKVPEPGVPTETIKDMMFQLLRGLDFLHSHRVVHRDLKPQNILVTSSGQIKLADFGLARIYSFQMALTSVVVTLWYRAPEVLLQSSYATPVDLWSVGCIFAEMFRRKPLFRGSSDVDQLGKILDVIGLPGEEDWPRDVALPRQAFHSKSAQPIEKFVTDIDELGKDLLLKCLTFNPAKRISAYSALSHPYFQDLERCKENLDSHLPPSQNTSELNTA
CDK6, sequence (P30281 whole entry partner): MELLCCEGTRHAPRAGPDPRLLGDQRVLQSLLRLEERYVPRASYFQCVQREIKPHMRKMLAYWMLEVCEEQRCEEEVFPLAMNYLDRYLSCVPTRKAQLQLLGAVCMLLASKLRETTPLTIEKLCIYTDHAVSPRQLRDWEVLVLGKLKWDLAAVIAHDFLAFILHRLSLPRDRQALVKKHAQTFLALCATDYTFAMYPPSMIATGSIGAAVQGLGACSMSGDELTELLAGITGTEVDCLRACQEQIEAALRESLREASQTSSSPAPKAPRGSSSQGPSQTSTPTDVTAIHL

Lck = Lck (Homo sapiens, UniProt P06239); conditions: Source Millipore; 10-point titration in duplicates, done once; cited from earlier work
Lck, sequence (P06239 whole entry): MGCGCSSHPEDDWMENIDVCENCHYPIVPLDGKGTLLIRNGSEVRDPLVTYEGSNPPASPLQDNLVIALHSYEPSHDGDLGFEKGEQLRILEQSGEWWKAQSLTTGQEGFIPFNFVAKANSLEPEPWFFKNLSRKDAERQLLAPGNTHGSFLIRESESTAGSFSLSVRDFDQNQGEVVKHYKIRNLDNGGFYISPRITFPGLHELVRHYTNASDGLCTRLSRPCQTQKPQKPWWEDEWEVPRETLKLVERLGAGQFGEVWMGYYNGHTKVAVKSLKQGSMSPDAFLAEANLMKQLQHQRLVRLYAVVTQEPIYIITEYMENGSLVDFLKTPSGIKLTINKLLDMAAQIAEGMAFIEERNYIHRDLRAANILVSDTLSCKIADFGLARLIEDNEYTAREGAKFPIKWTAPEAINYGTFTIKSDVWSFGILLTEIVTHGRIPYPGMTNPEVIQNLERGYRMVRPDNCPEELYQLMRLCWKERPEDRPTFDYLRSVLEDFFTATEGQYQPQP

Nek2, sequence (P51955 whole entry): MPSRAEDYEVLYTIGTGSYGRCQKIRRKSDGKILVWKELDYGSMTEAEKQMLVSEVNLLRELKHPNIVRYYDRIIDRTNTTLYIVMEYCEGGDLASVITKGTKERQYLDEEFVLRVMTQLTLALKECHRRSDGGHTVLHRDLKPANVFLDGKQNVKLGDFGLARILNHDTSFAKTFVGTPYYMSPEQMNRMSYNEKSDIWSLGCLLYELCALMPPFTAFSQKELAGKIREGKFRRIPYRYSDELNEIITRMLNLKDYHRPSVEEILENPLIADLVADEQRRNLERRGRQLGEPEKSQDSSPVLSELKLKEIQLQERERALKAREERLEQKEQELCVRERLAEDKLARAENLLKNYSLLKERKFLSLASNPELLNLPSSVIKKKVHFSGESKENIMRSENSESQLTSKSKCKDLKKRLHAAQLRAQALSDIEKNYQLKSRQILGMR

## CN1C/C=C/CCOc2cccc(c2)-c2ccnc(n2)Nc2cccc(c2)C1 [TG02, (16E)-14-methyl-20-oxa-5,7,14,27-tetraazatetracyclo[19.3.1.12,6.18,12]heptacosa-1(25),2(27),3,5,8(26),9,11,16,21,23-decaene]
Nek2
  inhibition at 100 nm: less than 50%
TYK2
  IC50: 14 nM
DIPG13p
  IC50: 80 nM
SF8628
  IC50: 70 nM
DIPG4
  IC50: 60 nM
DIPG007
  IC50: 93 nM
MEK1
  inhibition at 100 nm: less than 50%
Fms
  IC50: 27 nM
Aurora B
  inhibition at 100 nm: less than 50%
[1]; Homo sapiens, read-out: EC50 to treatment with TG02, overexpression of ERK5 and constitutively active ERK in DIPG-IV cells
  EC50: > 1000 nM
[1]; TG02 100 nM, ERK5-HA or ERK5-HA T733E vs empty vector
  cleaved Caspase 3/7 levels: reduced cleaved Caspase 3/7 levels
PKCε
  inhibition at 100 nm: less than 50%
JAK2
  IC50: 19 nM
Chk1
  inhibition at 100 nm: less than 50%
[2]; 50 nM TG02 and 10 Gy of RT (2-Gy fractions over 5 days), Day 5, compared to RT or TG02 only
  cell viability, RT and TG02: statistically significant reduction in cell viability
[2]; 50 nM of TG02, Day 5, vs DMSO control
  cell viability, TG02 alone: significantly reduced cell viability
ALK
  inhibition at 100 nm: less than 50%
EGFR
  inhibition at 100 nm: less than 50%
IKK-β
  inhibition at 100 nm: less than 50%
ZAP-70
  inhibition at 100 nm: less than 50%
CDK6
  inhibition at 100 nm: less than 50%
Lck
  IC50: 11 nM
